These results are taken from US20120225076A1, “FRA-1 TARGET GENES AS DRUG TARGETS FOR TREATING CANCER” (priority 2009, published 2012).

Counter-ions that a name gives are not always drawn. Like-named read-outs stand apart in the source and are kept apart here. Numbered stars: 1 amine (or outer) side, 2 acyl side, 3 side chain; on linkers, the order of the positions; unused ones are H or OH. Bridge positions count the residues as written; N and C are the ends. Square brackets hold non-standard residues; d marks the D form. Peptide text beside a SMILES is read from it. Adda = CO[C@@H](Cc1ccccc1)[C@@H](C)/C=C(C)/C=C/[C@H](N[*:1])[C@H](C)C(=O)[*:2]; dAsp(3S-Me) = C[C@H](C(=O)[*:3])[C@@H](N[*:1])C(=O)[*:2]; d(γGlu) = O=C(O)[C@@H](CCC(=O)[*:2])N[*:1]; NMeDha = C=C(NC)C(=O)O

The target in one data set is Aurora kinase B (Homo sapiens, UniProt Q96GD4). Conditions: description of known inhibitor; cited from earlier work.
Aurora kinase B, sequence (Q96GD4 whole entry): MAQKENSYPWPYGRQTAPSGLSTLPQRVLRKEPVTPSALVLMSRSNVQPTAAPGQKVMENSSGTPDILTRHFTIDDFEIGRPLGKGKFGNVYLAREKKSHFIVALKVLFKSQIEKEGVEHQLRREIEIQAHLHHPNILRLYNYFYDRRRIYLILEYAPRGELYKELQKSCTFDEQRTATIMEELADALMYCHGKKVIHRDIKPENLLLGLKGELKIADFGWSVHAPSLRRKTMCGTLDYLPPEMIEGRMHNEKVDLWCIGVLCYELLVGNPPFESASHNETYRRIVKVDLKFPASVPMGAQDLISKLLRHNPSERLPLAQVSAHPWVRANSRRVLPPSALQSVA
The test system of data set [1] is breast cancer cells expressing high levels of Fra-1.
Another data set deals with PP2A. Conditions: cited from earlier work.
The next data set has as its system PP1. Particulars: cited from earlier work.
Another data set addresses E2F1-DNA complex (Homo sapiens, UniProt Q01094). Particulars: description of known inhibitor; cited from earlier work.
The target of a further data set is PP4 (Homo sapiens, UniProt P60510). Particulars: description of known inhibitor; cited from earlier work.
PP4, sequence (P60510 whole entry): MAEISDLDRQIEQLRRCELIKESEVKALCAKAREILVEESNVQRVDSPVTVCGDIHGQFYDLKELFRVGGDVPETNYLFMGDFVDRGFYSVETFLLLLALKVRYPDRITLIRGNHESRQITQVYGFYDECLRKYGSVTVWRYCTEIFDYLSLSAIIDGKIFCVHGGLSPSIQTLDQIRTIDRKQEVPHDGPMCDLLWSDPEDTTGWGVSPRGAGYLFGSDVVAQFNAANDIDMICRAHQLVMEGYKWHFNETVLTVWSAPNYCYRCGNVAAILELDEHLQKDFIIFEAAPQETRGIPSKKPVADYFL
In a further data set the target is Adenosine A2b receptor (Homo sapiens, UniProt P29275). Conditions: description of known inhibitor; cited from earlier work.
Adenosine A2b receptor, sequence (P29275 whole entry): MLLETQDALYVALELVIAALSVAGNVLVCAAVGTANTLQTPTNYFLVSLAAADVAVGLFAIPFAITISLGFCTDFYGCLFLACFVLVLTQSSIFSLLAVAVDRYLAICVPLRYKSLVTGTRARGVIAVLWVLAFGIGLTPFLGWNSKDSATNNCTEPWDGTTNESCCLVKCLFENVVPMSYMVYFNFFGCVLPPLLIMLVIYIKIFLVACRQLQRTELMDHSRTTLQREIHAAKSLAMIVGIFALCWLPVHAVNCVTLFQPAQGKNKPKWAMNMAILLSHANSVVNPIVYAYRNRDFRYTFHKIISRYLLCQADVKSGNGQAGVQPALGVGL
In a further data set the test system is PRLs. Particulars: cited from earlier work.

E2F1-DNA complex, sequence (Q01094 whole entry, one chain of several): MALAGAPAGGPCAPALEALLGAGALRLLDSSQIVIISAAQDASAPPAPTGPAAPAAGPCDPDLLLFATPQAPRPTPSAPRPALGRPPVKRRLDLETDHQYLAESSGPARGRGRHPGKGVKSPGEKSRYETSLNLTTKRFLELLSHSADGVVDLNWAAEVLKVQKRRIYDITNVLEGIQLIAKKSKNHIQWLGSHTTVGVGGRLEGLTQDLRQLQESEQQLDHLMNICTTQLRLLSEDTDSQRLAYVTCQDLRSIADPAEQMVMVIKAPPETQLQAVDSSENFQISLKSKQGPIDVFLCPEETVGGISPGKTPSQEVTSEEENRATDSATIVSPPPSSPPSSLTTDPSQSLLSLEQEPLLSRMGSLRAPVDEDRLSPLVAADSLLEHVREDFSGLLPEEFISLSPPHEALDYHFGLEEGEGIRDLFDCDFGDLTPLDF

As to `CCN(CCCOc1ccc2c(Nc3cc(CC(=O)Nc4cccc(F)c4)n[nH]3)ncnc2c1)CCOP(=O)(O)O` [AZD1152], on Aurora kinase B, the “inhibition of Aurora kinase B” value is “selective inhibitor”.

As to `Nc1nc2ccc(Cl)cc2c2nc(-c3ccco3)nn12` [CGS-15953], the “cytotoxicity for breast cancer cells expressing high levels of Fra-1” value in data set [1] is on record as “*In an in vitro drug screen with the LOPAC library, we identified those two ADORA2B inhibitors as being selectively cytotoxic for breast cancer cells expressing high levels of Fra-1”.

In the case of `COC[C@@H]([C@H](O)[C@H](O)C(=O)NCC[C@H](C)c1nc(/C=C/C[C@@H]2O[C@]3(C[C@@H](O)[C@@H]2C)O[C@H]([C@H](C[C@H](O)[C@H](C)[C@H](O)[C@H](C)/C=C(C)/C(C)=C/C=C/C(C)=C\C#N)OC)[C@H](OP(=O)(O)O)C3(C)C)co1)N(C)C` [Calyculin A], the “potency for PP2A” value in the data set on PP2A (description of known inhibitor) is recorded as “high potency for PP2A, low potency for PP1”. Further, the “potency for PP1” value in the data set with PP1 is recorded as “high potency for PP2A, low potency for PP1”.

With `C[C@@]12C(=O)OC(=O)[C@]1(C)[C@H]1CC[C@@H]2O1` [Candharidin], the “potency for PP2A” value in the data set with PP2A (description of known inhibitor) is listed as “selective inhibitor of PP2A”.

Regarding `CC1(C(=O)O)C2CCC(O2)C1(C)C(=O)O` (centres unmarked) [Cantharidic acid], the “potency for PP2A” value with PP2A is “inhibits PP2A and PP1 (for use in protein purification)”. The “potency for PP1” value with PP1 is “inhibits PP2A and PP1 (for use in protein purification)”.

Regarding `Cn1cc(NC(=O)c2cc(NC(=O)c3cc(NC=O)cn3C)cn2C)cc1C(=O)NCCC(=N)N` [Distamycin], the “inhibition of E2F1-DNA complex” value at E2F1-DNA complex is listed as “specifically inhibits E2F1-DNA complex”.

With `O=C(O)[C@@H]1[C@H](C(=O)O)[C@H]2CC[C@@H]1O2` [Endothall], the “potency for PP2A” value with PP2A (description of known inhibitor) is recorded as “intermediate potency for PP2A”.

Regarding `C[C@@](O)(/C=C/[C@H]1CC=CC(=O)O1)[C@@H](C[C@@H](O)\C=C/C=C\C=C\CO)OP(=O)(O)O` [Fostriecin sodium salt], on PP4, the “potency for PP4” value was “potent inhibitors for PP2A and PP4”. Also, the “potency for PP2A” value in the data set with PP2A (description of known inhibitor) is “potent inhibitors for PP2A and PP4”.

Regarding `C=C1C(=O)N[C@H](C)C(=O)N[C@@H](CC(C)C)C(=O)N[C@@H](C(=O)O)[C@H](C)C(=O)N[C@@H](CCCNC(=N)N)C(=O)N[C@@H](/C=C/C(C)=C/[C@H](C)[C@H](Cc2ccccc2)OC)[C@H](C)C(=O)N[C@@H](C(=O)O)CCC(=O)N1C` [Microcystin LR] (R[Adda][d(γGlu)][NMeDha][dA]L[dAsp(3S-Me)]-OH; lactam N-7), the “potency for PP2A compared to PP1” value with PP2A is listed as “more potent for PP2A when compared to PP1”.

`C=C1[C@@H](O)[C@@H]2O[C@]3(CC[C@H](/C=C/[C@@H](C)[C@@H]4CC(C)=C[C@@]5(O[C@H](C[C@@](C)(O)C(=O)O)CC[C@H]5O)O4)O3)CC[C@H]2O[C@@H]1[C@@H](O)C[C@H](C)[C@H]1O[C@@]2(CCCCO2)CC[C@H]1C` [Okadaic acid]: in the data set with PP2A (at 1 nM), the “inhibition of PP2A” value is recorded as “completely inhibits PP2A at 1 nM (less potent for PP1)”. In addition, in the data set on PP1, the “potency for PP1” value is recorded as “completely inhibits PP2A at 1 nM (less potent for PP1)”.

With `CCCn1c(=O)[nH]c2nc(-c3ccc(S(=O)(=O)N4CCN(Cc5ccccc5)CC4)cc3)[nH]c2c1=O` [PSB601], at Adenosine A2b receptor, the “antagonism of adenosine A2b receptor” value was “specific antagonist”.

On to `N=C(N)c1ccc(OCCCCCOc2ccc(C(=N)N)cc2)cc1` [Pentamidine], for which the “inhibition of PRLs” value in the data set on PRLs is “inhibits all PRLs”.

For Toutomycin, in the data set with PP2A (PP2A versus PP1), the “potency for PP2A compared to PP1” value is “more potent for PP1, less for PP2A”.
